# Active and inactive are the calls of the source. No cut-off for these calls is given here.
# Tests used:
# Human betaherpesvirus 5 = experiment: In vitro antiviral activity against Human cytomegalovirus (HCMV) was determined; type: functional, organism-based
# Human alphaherpesvirus 1 = experiment: In vitro antiviral activity against Herpes simplex virus (HSV-1) was determined; type: functional, organism-based
# CCRF-CEM [1] = experiment: In vitro anti-HIV screen using HIV-1 infected CD4 lymphocytes (CEM cell line), determines cytotoxicity; type: functional, cell-based; conditions: Homo sapiens
# CAKI-1 = experiment: Test was to evaluate selectivity against individual tumor cell lines Renal cancer (CAKI-1); type: functional; conditions: Homo sapiens
# CCRF-CEM [2] = experiment: Inhibitory concentration for spectrum antiviral activity against herpes viruses; type: functional, cell-based; conditions: Homo sapiens
# Human alphaherpesvirus 3 = experiment: In vitro antiviral activity against Varicella zoster virus (VZV) was determined; type: functional, organism-based
# SK-MEL-5 [3] = experiment: Test was to evaluate selectivity against individual tumor cell lines Melanoma (SK-MEL-5); type: functional; conditions: Homo sapiens
# Malme-3M [4] = experiment: Test was to evaluate selectivity against individual tumor cell lines Melanoma (MALME-3M); type: functional; conditions: Homo sapiens
# RPMI-8226 = experiment: Test was to evaluate selectivity against individual tumor cell line Leukemia (RPMI-8226); type: functional; conditions: Homo sapiens
# Human gammaherpesvirus 4 = experiment: In vitro antiviral activity against Epstein Barr virus (EBV) was determined; type: functional, organism-based
# M19-MEL [5] = experiment: Test was to evaluate selectivity against individual tumor cell lines Melanoma (M19-MEL); type: functional; conditions: Homo sapiens
# CCRF-CEM [6] = experiment: Test was to evaluate selectivity against individual tumor cell line Leukemia (CCRF-CEM); type: functional; conditions: Homo sapiens
# Human alphaherpesvirus 2 = experiment: In vitro antiviral activity against Herpes simplex virus (HSV-2) was determined; type: functional, organism-based
# DMS-114 = experiment: Test was to evaluate selectivity against individual tumor cell lines Small cell lung cancer (DMS114); type: functional; conditions: Homo sapiens
# Tumor Cell line = experiment: Test was to evaluate selectivity against individual tumor cell lines; NS= No selectivity; type: functional, cell-based; conditions: Homo sapiens
# M19-MEL [7] = experiment: est was to evaluate selectivity against individual tumor cell line Melanoma (M19-MEL); type: functional; conditions: Homo sapiens
# SK-MEL-5 [8] = experiment: est was to evaluate selectivity against individual tumor cell line Melanoma (SK-MEL-5); type: functional; conditions: Homo sapiens
# NCI-H522 = experiment: Test was to evaluate selectivity against individual tumor cell line Non small cell lung cancer (NCI-H522); type: functional; conditions: Homo sapiens
# Malme-3M [9] = experiment: est was to evaluate selectivity against individual tumor cell line Melanoma (MALME-3M); type: functional; conditions: Homo sapiens
# SF-268 = experiment: Test was to evaluate selectivity against individual tumor cell line CNS cancer (SF-268); type: functional; conditions: Homo sapiens
SMILES,EC50 (Human betaherpesvirus 5) [µM],EC50 (Human alphaherpesvirus 1) [µM],IC50 (CCRF-CEM [1]) [µM],GI50 (CAKI-1) [µM],IC50 (CCRF-CEM [2]) [µM],EC50 (Human alphaherpesvirus 3) [µM],GI50 (SK-MEL-5 [3]) [µM],GI50 (Malme-3M [4]) [µM],GI50 (RPMI-8226) [µM],EC50 (Human gammaherpesvirus 4) [µM],GI50 (M19-MEL [5]) [µM],GI50 (CCRF-CEM [6]) [µM],EC50 (Human alphaherpesvirus 2) [µM],GI50 (DMS-114) [µM],Activity (Tumor Cell line),GI50 (M19-MEL [7]) [µM],GI50 (SK-MEL-5 [8]) [µM],GI50 (NCI-H522) [µM],GI50 (Malme-3M [9]) [µM],GI50 (SF-268) [µM]
[N-]=[N+]=NC1C(Br)C(=O)NC(=O)N1[C@H]1C[C@H](O)[C@@H](CO)O1 (some centres undefined),11.4,8.28,127,66.3,7.4,91.4,42.2,15.5,19.6,46,91.5,38,3.42,90.9,–,–,–,–,–,–
CC1(Br)C(=O)NC(=O)N([C@H]2C[C@H](O)[C@@H](CO)O2)C1N=[N+]=[N-] (some centres undefined),15,> 274,73,–,143,104,–,–,–,16,–,–,> 274,–,inactive,–,–,–,–,–
Nc1nc2c(ncn2COCCO)c(=O)[nH]1 [ACYCLOVIR],–,3.08,> 440,–,–,–,–,–,–,3.96,–,–,6.16,–,–,–,–,–,–,–
[N-]=[N+]=NC1C(Cl)C(=O)NC(=O)N1[C@H]1C[C@H](O)[C@@H](CO)O1 (some centres undefined),28.9,0.33,> 327,–,54.6,–,–,–,72.4,9.8,–,26.3,1.6,–,–,52.4,12.3,5.37,13.1,93.3
CC1(Cl)C(=O)NC(=O)N([C@H]2C[C@H](O)[C@@H](CO)O2)C1N=[N+]=[N-] (some centres undefined),> 50,> 313,113,–,135,–,–,–,–,> 12.5,–,–,> 313,–,inactive,–,–,–,–,–
O=c1[nH]c(=O)n([C@H]2C[C@H](O)[C@@H](CO)O2)cc1Cl [CHLORODEOXYURIDINE],–,15,–,–,–,–,–,–,–,–,–,–,–,–,–,–,–,–,–,–
Nc1nc2c(ncn2COC(CO)CO)c(=O)[nH]1 [GANCICLOVIR],0.78,–,> 390,–,–,–,–,–,–,–,–,–,–,–,–,–,–,–,–,–
